Measurements from US7189741B2, “Indolylpiperidine derivatives as antihistaminic and antiallergic agents” (Almirall Prodesfarma S.A., priority 2000, dated 2007).
Read-outs that look alike come from different tables or passages of the source.

Key:
[1] = target: T1, histamine-H1 receptors (Cavia porcellus, UniProt P31389); assay: Histamine-H1 receptor binding assay ([3H]-mepyramine displacement); set-up: species or system guinea pig
T1 construct: performed in guinea pig cerebellum membranes as described previously; from tissue; host or cells: guinea pig cerebellum membranes
T1 sequence (P31389 whole entry): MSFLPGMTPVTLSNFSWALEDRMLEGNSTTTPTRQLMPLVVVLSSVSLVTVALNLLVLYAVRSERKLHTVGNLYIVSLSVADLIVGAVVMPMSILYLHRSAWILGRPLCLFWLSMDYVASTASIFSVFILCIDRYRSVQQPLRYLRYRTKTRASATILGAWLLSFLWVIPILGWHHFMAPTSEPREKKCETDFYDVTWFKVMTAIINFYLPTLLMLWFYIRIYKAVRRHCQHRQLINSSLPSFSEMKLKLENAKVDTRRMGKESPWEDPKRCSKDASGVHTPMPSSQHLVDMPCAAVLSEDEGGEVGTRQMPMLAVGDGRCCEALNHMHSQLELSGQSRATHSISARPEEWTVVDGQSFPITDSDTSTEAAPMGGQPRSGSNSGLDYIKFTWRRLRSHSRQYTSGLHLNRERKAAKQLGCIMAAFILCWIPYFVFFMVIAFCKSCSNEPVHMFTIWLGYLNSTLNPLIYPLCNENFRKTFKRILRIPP
Procedure: Briefly, the membrane suspensions (160 μg/ml) were incubated at 30° C. with 0.7 nM [^3H]-mepyramine and different concentrations of the test compounds in a final volume of 250 μl. Binding reactions were terminated by filtration after 30 min of incubation and the bound radioactivity was determined. The specific binding was measured in the presence of 10 μM of promethazine. The affinity of each test compound to the receptor was determined by using at least six different concentrations run in duplicate. IC50 values were obtained by non-linear regression by use of SAS on a DEC AXP computer.

[2] = test system: histamine induced skin vascular permeability; assay: Histamine-induced skin vascular permeability in rats; type: in vivo; settings: Rattus norvegicus; male Wistar rats, oral, dose of 1 mg/Kg, 4 hours after administration, vs vehicle treated group
Procedure: Male Wistar rats (180–210 g) were treated orally with the test compound or vehicle. 1, 4, 8 and 24 hours later, the rats were lightly anaesthetized with ether. The cutaneous reaction was induced by two intradermal injections of 50 μl of histamine (100 μg/ml) onto the back, followed by a intravenous injection of 3 ml/kg of Evan's Blue (5 mg/ml), both dissolved in saline. Sixty min later, the rats were killed by cervical dislocation and the back skin dissected free. The diameter (in millimeters) of the papule was measured in two directions and the area was calculated.

[3] = guinea pig cerebellum membranes, 0.7 nM [3H]-mepyramine, 30 min at 30° C., read-out: Binding to receptor H1 (IC50)

| Compound | IC50 [1, 3] [nM] | IC50 [1] [nM] | inhibition in vivo at 1 mg/kg [2] [%] |
| --- | --- | --- | --- |
| COc1ccc(CN2CCC(c3cn(CCc4ccsc4)c4cc(F)ccc34)CC2)cc1C(=O)O [Example 78, 5-{4-[6-fluoro-1-(2-thiophen-3-yl-ethyl)-1H-indol-3-yl]-piperidin-1-ylmethyl}-2-methoxy-benzoic acid] |  | 65 | > 50 |
| O=C(O)c1cccc(CN2CCC(c3cn(Cc4cccs4)c4ccccc34)CC2)c1 [Example 25, 3-[4-(1-thiophen-2-ylmethyl-1H-indol-3-yl)-piperidin-1-ylmethyl]-benzoic acid] | 90 |  |  |
| COc1ccc(CN2CCC(c3cn(CCc4cccs4)c4cc(F)ccc34)CC2)cc1C(=O)O [Example 69, 5-{4-[6-fluoro-1-(2-thiophen-2-yl-ethyl)-1H-indol-3-yl]-piperidin-1-ylmethyl}-2-methoxy-benzoic acid] | 135 |  |  |
| COc1ccc(CN2CCC(c3cn(Cc4ccoc4)c4cc(F)ccc34)CC2)cc1C(=O)O [Example 80, 5-[4-(6-fluoro-1-furan-3-ylmethyl-1H-indol-3-yl)-piperidin-1-ylmethyl]-2-methoxy-benzoic acid] | 96 |  | > 50 |
| COc1ccc(CN2CCC(c3cn(Cc4cccs4)c4ccccc34)CC2)cc1C(=O)O [Example 73, 2-methoxy-5-[4-(1-thiophen-2-ylmethyl-1H-indol-3-yl)-piperidin-1-ylmethyl]-benzoic acid] | 125 |  | > 50 |
| O=C(O)c1ccccc1OCCN1CCC(c2cn(Cc3ccco3)c3cc(F)ccc23)CC1 [Example 22, 2-{2-[4-(6-fluoro-1-furan-2-ylmethyl-1H-indol-3-yl)-piperidin-1-yl]-ethoxy}-benzoic acid] |  |  | > 50 |
| O=C(O)c1cccc(CN2CCC(c3cn(CCC4OCCO4)c4ccccc34)CC2)c1 [Example 28, 3-{4-[1-(2-[1,3]dioxolan-2-yl-ethyl)-1H-indol-3-yl]-piperidin-1-ylmethyl}-benzoic acid] | 205 |  |  |
| COc1ccc(CN2CCC(c3cn(Cc4ccc(Cl)s4)c4cc(F)ccc34)CC2)cc1C(=O)O [Example 79, 5-{4-[1-(5-chloro-thiophen-2-ylmethyl)-6-fluoro-1H-indol-3-yl]-piperidin-1-ylmethyl}-2-methoxy-benzoic acid] | 150 |  | > 50 |
| O=C(O)c1ccccc1OCCN1CCC(c2cn(Cc3ccoc3)c3cc(F)ccc23)CC1 [Example 112, 2-{2-[4-(6-fluoro-1-furan-3-ylmethyl-1H-indol-3-yl)-piperidin-1-yl]-ethoxy}-benzoic acid] | 31 |  |  |
| O=C(O)c1ccccc1OCCN1CCC(c2cn(CCC3OCCO3)c3cc(F)ccc23)CC1 [Example 24, 2-(2-{4-[1-(2-[1,3]dioxolan-2-yl-ethyl)-6-fluoro-1H-indol-3-yl]-piperidin-1-yl}-ethoxy)-benzoic acid] | 51 |  | > 50 |
| COc1ccc(CN2CCC(c3cn(Cc4ccoc4)c4ccccc34)CC2)cc1C(=O)O [Example 86, 5-[4-(1-furan-3-ylmethyl-1H-indol-3-yl)-piperidin-1-ylmethyl]-2-methoxy-benzoic acid] | 155 |  | > 50 |
| O=C(O)c1cccc(CN2CCC(c3cn(Cc4ccco4)c4cc(F)ccc34)CC2)c1 [Example 96, 3-[4-(6-fluoro-1-furan-2-ylmethyl-1H-indol-3-yl)-piperidin-1-ylmethyl]-benzoic acid] | 107 |  |  |
| COc1ccc(CN2CCC(c3cn(CCc4ccsc4)c4ccccc34)CC2)cc1C(=O)O [Example 75, 2-methoxy-5-{4-[1-(2-thiophen-3-yl-ethyl)-1H-indol-3-yl]-piperidin-1-ylmethyl}-benzoic acid] | 52 |  | > 50 |
| O=C(O)c1ccccc1OCCN1CCC(c2cn(CCc3ccsc3)c3cc(F)ccc23)CC1 [Example 110, 2-(2-{4-[6-fluoro-1-(2-thiophen-3-yl-ethyl)-1H-indol-3-yl]-piperidin-1-yl}-ethoxy)-benzoic acid] | 23 |  |  |
| COc1ccc(CN2CCC(c3cn(Cc4cccs4)c4cc(F)ccc34)CC2)cc1C(=O)O [Example 82, 5-[4-(6-fluoro-1-thiophen-2-ylmethyl-1H-indol-3-yl)-piperidin-1-ylmethyl]-2-methoxy-benzoic acid] | 91 |  | > 50 |
| COc1ccc2c(c1)c(C1CCN(CCOc3ccccc3C(=O)O)CC1)cn2CCc1ccsc1 [Example 88, 2-(2-{4-[5-methoxy-1-(2-thiophen-3-yl-ethyl)-1H-indol-3-yl]-piperidin-1-yl}-ethoxy)-benzoic acid] | 51 |  |  |
| O=C(O)c1cc(CN2CCC(c3cn(CCCOc4ccc5c(c4)OCO5)c4ccccc34)CC2)ccc1F [Example 50, 5-(4-{1-[3-(benzo[1,3]dioxol-5-yloxy)-propyl]-1H-indol-3-yl}-piperidin-1-ylmethyl)-2-fluoro-benzoic acid] | 155 |  |  |
| COc1ccc(CN2CCC(c3cn(Cc4ccco4)c4ccccc34)CC2)cc1C(=O)O [Example 85, 5-[4-(1-furan-2-ylmethyl-1H-indol-3-yl)-piperidin-1-ylmethyl]-2-methoxy-benzoic acid] | 101 |  | > 50 |

Now from value to molecule, other results behind:

| IC50 [1, 3] [nM] | Compound | IC50 [1] [nM] | inhibition in vivo at 1 mg/kg [2] [%] |
| --- | --- | --- | --- |
| 267 | O=C(O)c1ccccc1OCCN1CCC(c2cn(Cc3ccncc3)c3ccccc23)CC1 [Example 3, 2-{2-[4-(1-pyridin-4-ylmethyl-1H-indol-3-yl)-piperidin-1-yl]-ethoxy}-benzoic acid] |  |  |
| 78 | O=C(O)c1ccccc1OCCN1CCC(c2cn(CCCOc3ccc4c(c3)OCO4)c3ccccc23)CC1 [Example 16, 2-[2-(4-{1-[3-(benzo[1,3]dioxol-5-yloxy)propyl]-1H-indol-3-yl}piperidin-1-yl)ethoxy]benzoic acid] |  |  |
| 98 | O=C(O)c1ccccc1OCCN1CCC(c2cn(Cc3ccco3)c3ccccc23)CC1 [Example 9, 2-{2-[4-(1-furan-2-ylmethyl-1H-indol-3-yl)-piperidin-1-yl]-ethoxy}-benzoic acid] |  |  |
| 200 | O=C(O)c1ccccc1OCCN1CCC(c2cn(CC3OCCO3)c3ccccc23)CC1 [Example 1, 2-{2-[4-(1-[1,3]dioxolan-2-ylmethyl-1H-indol-3-yl)-piperidin-1-yl]-ethoxy}-benzoic acid] |  |  |
| 463 | Cn1ccnc1SCCCn1cc(C2CCN(CCOc3ccccc3C(=O)O)CC2)c2ccccc21 [Example 6, 2-[2-(4-{1-[3-(1-methyl-1H-imidazol-2-ylsulfanyl)-propyl]-1H-indol-3-yl}-piperidin-1-yl)-ethoxy]-benzoic acid] |  |  |
| 120 | O=C(O)c1ccccc1OCCN1CCC(c2cn(Cc3ccc(Cl)s3)c3ccccc23)CC1 [Example 19, 2-(2-{4-[1-(5-chloro-thiophen-2-ylmethyl)-1H-indol-3-yl]-piperidin-1-yl}-ethoxy)-benzoic acid] |  |  |
| 116 | O=C(O)c1ccccc1OCCN1CCC(c2cn(CCOc3ccc4c(c3)OCO4)c3ccccc23)CC1 [Example 77, 2-[2-(4-{1-[2-(benzo[1,3]dioxol-5-yloxy)-ethyl]-1H-indol-3-yl}-piperidin-1-yl)-ethoxy]-benzoic acid] |  |  |
| 43 | O=C(O)c1ccccc1OCCN1CCC(c2cn(CCc3cccs3)c3ccccc23)CC1 [Example 12, 2-(2-{4-[1-(2-thiophen-2-yl-ethyl)-1H-indol-3-yl]-piperidin-1-yl}-ethoxy)-benzoic acid] |  |  |
| 400 | O=C(O)c1ccccc1OCCN1CCC(c2cn(Cc3ccsc3)c3ccccc23)CC1 [Example 11, 2-{2-[4-(1-thiophen-3-ylmethyl-1H-indol-3-yl)-piperidin-1-yl]-ethoxy}-benzoic acid] |  |  |
| 295 | O=C(O)c1ccccc1OCCN1CCC(c2cn(CCCC3OCCO3)c3ccccc23)CC1 [Example 21, 2-(2-{4-[1-(3-[1,3]dioxolan-2-yl-propyl)-1H-indol-3-yl]-piperidin-1-yl}-ethoxy)-benzoic acid] |  |  |
| 59 | O=C(O)c1ccccc1OCCN1CCC(c2cn(CCc3ccsc3)c3ccccc23)CC1 [Example 13, 2-(2-{4-[1-(2-thiophen-3-yl-ethyl)-1H-indol-3-yl]-piperidin-1-yl}-ethoxy)-benzoic acid] |  |  |
| 354 | O=C(O)c1ccccc1OCCN1CCC(c2cn(CCC3OCCO3)c3ccccc23)CC1 [Example 23, 2-(2-{4-[1-(2-[1,3]dioxolan-2-yl-ethyl)-1H-indol-3-yl]-piperidin-1-yl}-ethoxy)-benzoic acid] |  | > 50 |
